US20250002450A1, “CATIONIC STEROID COMPOUNDS, METHOD OF OBTAINING THEREOF, FORMULATIONS COMPRISING THEREOF AND THEIR USES” (UNIVERSIDADE DO PORTO, priority 2021, published 2025)
Values after ≈ are worked out from the molar mass of the structure shown. Read-outs that look alike come from different tables or passages of the source.

Tests used:
Experiment in all cases: Antifungal MIC/MLC (broth microdilution)
Assay type in all cases: cell-based, Candida albicans
[1] = test system: C. albicans DSY294
Description: (§1) Twenty-three fungal strains were used in this study, including reference strains and clinical isolates of yeasts and filamentous fungi. Yeast strains included reference strains (ATCC—American Type Culture Collection and CECT—Colección Española de Cultivos Tipo) and clinical isolates: C. albicans ATCC 10231, Candida krusei ATCC 6258, C. albicans H37, C. albicans FF172, C. albicans FF176, C. albicans DSY294, C. albicans DSY296, C. glabrata DSY562, C. glabrata DSY565 and Cryptococcus neoformans CECT 1078. Filamentous fungi included Aspergillus fumigatus ATCC 240305, A. fumigatus C111, A. niger ATCC 16404, A. flavus F44, Fusarium solani FF125, F. oxysporum FF115, and dermatophytes Trichophyton rubrum FF5, T. mentagrophytes FF7, Microscoporum canis FF1 and Nannizzia gypsea FF3 (formerly Microsporum gypseum) and a species of genera Mucor, Lichetheimia and Scedosporium. Saprolegnia parasitica CBS 223.65, a reference strain of an oomycete fish pathogen, was also included. All microorganisms were kept in Sabouraud Dextrose Broth (SDB: BioMérieux, Marcy L'Etoile, France) plus glycerol (20%) at −80° C. The strains were kept in Sabouraud Dextrose Agar (SDA: BioMérieux, Marcy L'Etoile, France) slants and were sub-cultured in SDA before each test. S. parasitica was kept in Corn Meal Agar plates (CMA: BBL™ Corn Meal Agar, BD, Le Pont-de-Claix, France) and was sub-cultured in CMA before each experiment. C. albicans H37, was kindly provided by Cidilia Pina Vaz (CHSJ, Porto, Portugal) and C. albicans DSY294, C. albicans DSY296, C. glabrata DSY562, C. glabrata DSY565 were kindly provided by D. Sanglard (University of Lausanne, Switzerland). A stock solution of compound 1 (10 mg/mL), was prepared in dimethyl sulfoxide (DMSO 99%: Alfa Aesar, Kandel, Germany), kept at −20 degrees C., and freshly diluted in the appropriate culture media before each assay. In all experiments, in-test concentrations of DMSO were kept below 2%.
(§2) Antifungal activity was evaluated by determining the MIC of compound 1 by the broth microdilution method, according to CLSI guidelines (reference documents M27-A3 for yeasts and M38-A2 for filamentous fungi). Briefly, cell or spore suspensions were prepared in RPMI-1640 broth medium (Biochrom, Berlin, Germany) buffered with 3-(N-morpholino)propane sulfonic acid (MOPS) (Sigma-Aldrich, St. Louis, MO, USA) (henceforth referred to as RPMI) from fresh cultures of the different strains of fungi. For yeasts, the inoculum was adjusted to 0.5-2.5×10^3 CFU/mL. For filamentous fungi, the inoculum was adjusted to 1-3×10^3 CFU/mL for dermatophytes, and 0.4-5×10^4 CFU/mL for all other strains. […] Sterility and growth controls were included in each assay. The 96-well flat-bottomed untreated polystyrene microtiter plates which were incubated for 48 h at 35° C., with the exception of Lichetheimia spp. which was incubated at 25° C. for 48 h, and the dermatophyte strains, which incubated for 5-7 days at 25° C. […] The minimal lethal concentration (MLC) was determined by spreading 20 μL of culture collected from wells showing no visible growth on SDA plates. The MLC was determined as the lowest concentration showing complete growth inhibition after 48 h at 35 degrees C., 48 h at 25 degrees C.

[2] = test system: C. albicans DSY296
Description: as §1, §2

[3] = test system: C. albicans FF172
Description: as §1, §2

[4] = test system: C. albicans FF176
Description: as §1, §2

[5] = test system: C. albicans H37
Description: as §1, §2

[6] = C. albicans DSY296, resistant to fluconazole or azoles
[7] = C. albicans FF176, resistant to fluconazole or azoles
[8] = C. albicans H37, resistant to fluconazole or azoles

Row | Compound | MIC ([1]; Candida albicans, DSY294) [µg/mL] | MIC ([2]; Candida albicans, DSY296, read-out: MIC) [µg/mL] | MIC ([3]; Candida albicans, read-out: MIC) [µg/mL] | MIC ([4]; Candida albicans, FF176, read-out: MIC) [µg/mL] | MIC ([5]; Candida albicans, H37, read-out: MIC) [µg/mL] | MIC ([1]; C. albicans DSY294) [µg/mL] | MLC ([1]; C. albicans DSY294) [µg/mL] | MIC [2, 6] [µg/mL] | MLC [2, 6] [µg/mL] | MIC [3] [µg/mL] | MLC [3] [µg/mL] | MIC [4, 7] [µg/mL] | MLC [4, 7] [µg/mL] | MIC [5, 8] [µg/mL] | MLC [5, 8] [µg/mL]
1 | OC(Cn1cncn1)(Cn1cncn1)c1ccc(F)cc1F [Fluconazole, reference compound] | 0.125 (≈ 0.408 µM) | 64 (≈ 209 µM) | 0.25 (≈ 0.816 µM) | 32 (≈ 104 µM) | ≥ 128 |  |  |  |  |  |  |  |  |  | 
2 | C[C@H](CCC(=O)NCCN)[C@H]1CC[C@H]2[C@@H]3CC[C@@H]4C[C@H](O)CC[C@]4(C)[C@H]3C[C@H](O)[C@]12C [Compound 1, (R)—N-(2-aminoethyl)-4-((3R,5R,8R,9S,10S,12S,13R,14S,17R)-3,12-dihydroxy-10,13-dimethylhexadecahydro-1H-cyclopenta[a]phenanthren-17-yl) pentanamida] |  |  |  |  |  | 64 (≈ 147 µM) | 64 (≈ 147 µM) | 64 (≈ 147 µM) | 64 (≈ 147 µM) | 64 (≈ 147 µM) | 64 (≈ 147 µM) | 32 (≈ 73.6 µM) | 32 (≈ 73.6 µM) | 64 (≈ 147 µM) | 64 (≈ 147 µM)
